From article PMC8567988 (Frontiers in Microbiology, 2021)
“And” between values parts separate entries of the source, which are not always exact repeats. Equal values may be shown once. Read-outs that look alike come from different tables or passages of the source.

Columns and labels:
[1] = tested on: ASFV Ba71V strain; assay: microbe, parasite or virus in culture; settings: African swine fever virus, Vero, 72 h, read-out: inhibition of ASFV-induced CPE
[2] = in vitro; settings: African green monkey
[3] = tested on: ASFV Ba71V strain
[4] = tested on: ASFV; assay type: cell-based, African swine fever virus
[5] = tested on: ASFV Ba71V strain; assay type: cell-based, African swine fever virus
[6] = tested on: ASFV protein (pA104R); assay type: cell-based, African swine fever virus
[7] = tested on: ASFV Arm/07 isolate; assay type: cell-based, African swine fever virus
[8] = tested on: ASFV Ba71V strain; assay: microbe, parasite or virus in culture; assay type: cell-based, African swine fever virus
[9] = tested on: ASFV Ba71V strain; assay type: cell-based, African swine fever virus; remark: listed apart in the source
[10] = tested on: ASFV Arm/07 isolate; assay type: cell-based, African swine fever virus; remark: listed apart in the source
[11] = tested on: ASFV Ba71V; assay type: cell-based, African swine fever virus
[12] = tested on: ASFV Ba71V; assay type: cell-based, African swine fever virus; remark: listed apart in the source
[13] = tested on: ASFV Arm/07 isolate; assay type: cell-based, African swine fever virus; remark: listed apart in the source
[14] = tested on: ASFV Ba71V strain; assay: microbe, parasite or virus in culture; assay type: cell-based, African swine fever virus; remark: listed apart in the source
[15] = tested on: ASFV Ba71V; assay type: cell-based, African swine fever virus; remark: listed apart in the source
[16] = tested on: ASFV Ba71V strain; assay: microbe, parasite or virus in culture; assay type: cell-based, African swine fever virus; remark: listed apart in the source
[17] = tested on: ASFV Arm/07 isolate; assay type: cell-based, African swine fever virus; remark: listed apart in the source
[18] = tested on: autophagic vacuoles in Vero cells; assay type: cell-based, African green monkey
[19] = tested on: ASFV Ba71V; assay type: cell-based, African swine fever virus; remark: listed apart in the source
[20] = tested on: porcine macrophages
[21] = in vivo; cited from earlier work

SMILES: COc1ccc(-c2cc(=O)c3c(OC)cc(OC)c(OC)c3o2)cc1OC [isosinensetin]
- inhibition at 20 µg/mL [1]: > 40%
- CC50 [2]: 24.8 µg/mL and 66.6 µM
- viability [2]: 58.5%
- cell monolayer damage upon treatment [3]: no apparent cell monolayer damage

SMILES: COc1ccc(-c2cc(=O)c3c(O)cc(O[C@@H]4O[C@H](CO[C@@H]5O[C@@H](C)[C@H](O)[C@@H](O)[C@H]5O)[C@@H](O)[C@H](O)[C@H]4O)cc3o2)cc1O [diosmin]
- inhibition at 10 µg/mL [1]: > 40%
- CC50 [2]: 33.1 µg/mL and 54.4 µM
- cell monolayer damage upon treatment [3]: no apparent cell monolayer damage

SMILES: COc1c2occc2c(OC)c2c(=O)cc(C)oc12 [khellin]
- inhibition at 10 µg/mL [1]: > 40%
- cell monolayer damage upon treatment [3]: no apparent cell monolayer damage

SMILES: Oc1c2ccccc2c2c3c(cccc13)N=N2 [SP600125, reference compound]
- effect of the inhibitor alone on ASFV infection [4]: only a slight effect on ASFV infection

SMILES: COc1cc(O)c2c(c1)O[C@H](c1ccc(O)cc1)CC2=O [sakuranetin]
- inhibition at 20 µg/mL [1]: > 40%
- cell monolayer damage upon treatment [3]: no apparent cell monolayer damage

SMILES: O=c1cc(-c2ccccc2)oc2c1ccc1ccccc12 [7,8-benzoflavone]
- inhibition at 10 µg/mL [1]: > 40%
- ASFV yield after virucidal pre-incubation [5]: 4.64±0.09 log TCID50/ml
- cell monolayer damage upon treatment [3]: no apparent cell monolayer damage

SMILES: COc1ccc(-c2cc(=O)c3c(OC)c(OC)c(OC)cc3o2)cc1OC [sinensetin]
- inhibition at 20 µg/mL [1]: > 40%
- CC50 [2]: 150 µg/mL and 404 µM
- cell monolayer damage upon treatment [3]: no apparent cell monolayer damage

SMILES: Oc1ccc2c(c1)OC[C@H]1c3cc4c(cc3O[C@@H]21)OCO4 [maackiain]
- inhibition at 20 µg/mL [1]: > 40%
- cell monolayer damage upon treatment [3]: no apparent cell monolayer damage

SMILES: COc1ccc(-c2coc3cc(O)ccc3c2=O)cc1O [calycosin]
- inhibition at 20 µg/mL [1]: > 40%
- cell monolayer damage upon treatment [3]: no apparent cell monolayer damage

SMILES: O=c1c(O)c(-c2ccc(O)cc2)oc2cc(O)cc(O)c12 [kaempferol, 3,5,7-trihydroxy-2-(4-hydroxyphenyl)-4H-chromen-4-one]
- antiviral activity in the presence of autophagy inhibitor SP600125 [4]: partially abrogated
- viral protein synthesis (late protein pA104R) [6]: viral protein synthesis was reduced
- decrease in the amount of viral DNA in ASFV factories [7]: 39%
- antiviral effect, log decrease of ASFV titer [8]: 1.26 log
- IC50 ([8]; African swine fever virus, Vero): 2.2 µg/mL and 7.7 µM
- inhibition at 20 µg/mL [1]: > 40%
- inhibition, log decrease of ASFV titer [9]: 1.21 log
- inhibition, log decrease of titer [10]: about 2 log
- decrease of viral DNA in viral factories vs untreated control [11]: 31%
- viral titers as the interval between infection and removal increased [12]: gradual declines in viral titers
- anti-ASFV activity [13]: Anti-ASFV activity was observed
- viral titer [13]: 3.4±0.14 log HADU50/ml
- viral yield [14]: 3.98±0.19 log TCID50/ml
- inhibition at 20 µg/mL ([14]; African swine fever virus, Vero, 24 h, read-out: inhibition of ASFV infection): > 92%
- inhibitory effect on ASFV infection [15]: no significant inhibitory effect
- suppression of viral infection [15]: more than 90%
- viral titer reduction [15]: 1.25 log and 1.1 log
- inhibition of the ASFV yield [16]: more than 60%
- viral titer, attachment experiment [16]: 3.97±0.25 log TCID50/ml
- virus titer, internalization experiment [16]: 3.63±0.11 log TCID50/ml
- inhibition at 20 µg/mL ([16]; African swine fever virus, Vero, read-out: inhibition of the ASFV yield, attachment experiment): ~60%
- effect on ASFV entry [17]: could hinder the ASFV attachment and internalization processes
- virucidal effect [5]: no virucidal effects
- formation of autophagic vacuoles [18]: induced the formation of autophagic vacuoles
- cell monolayer damage upon treatment [3]: no apparent cell monolayer damage
- plaque numbers (virus spread) [19]: significant reduction in plaque numbers in a dose-dependent manner
- cytotoxicity for porcine cells [20]: not cytotoxic
- human plasma concentration [21]: around 58 nm
